{"source": "patent US20020103185A1", "about": "“Pyrazole derivatives” (priority 2000, published 2002)", "note": "Counter-ions that a name gives are not always drawn.", "data": [{"units": {"melting point": "°C"}, "values": [{"smiles": "O=C(NC1CCC(c2cc(Nc3cccc(C(F)(F)F)c3)n[nH]2)C1)C1CCC1", "note": "(centres unmarked) (as salt: HCl) [Example 33, Cyclobutanecarboxylic acid {3-[5-(3-trifluoromethyl-phenylamino)-2H-pyrazol-3-yl]-cyclopentyl}-amide]", "melting point": 232.4}, {"smiles": "CC(C)C(=O)N[C@H]1C[C@@H](c2cc(NC(=O)Cc3cccc4ccccc34)n[nH]2)C1", "note": "(as salt: HCl) [Example 46, N-{cis-3-[5-(2-Naphthalen-1-yl-acetylamino)-2H-pyrazol-3-yl]-cyclobutyl}-isobutyramide]", "melting point": 130.6}, {"smiles": "O=C(Cc1cccc2ccccc12)Nc1cc([C@H]2C[C@@H](NC(=O)c3cccc(C(F)(F)F)c3)C2)[nH]n1", "note": "(as salt: HCl) [Example 45, N-{cis-3-[5-(2-Naphthalen-1-yl-acetylamino)-2H-pyrazol-3-yl]-cyclobutyl}-3-trifluoromethyl-benzamide]", "melting point": 142.8}, {"smiles": "O=C(NC1CCC(c2cc(Nc3cccc(C(F)(F)F)c3)n[nH]2)C1)c1ccccn1", "note": "(centres unmarked) (as salt: HCl) [Example 31, Pyridine-2-carboxylic acid {3-[5-(3-trifluoromethyl-phenylamino)-2H-pyrazol-3-yl]-cyclopentyl}-amide]", "melting point": 180.1}, {"smiles": "CC(=O)N[C@H]1C[C@@H](c2cc(NC(=O)Cc3cccc4ccccc34)n[nH]2)C1", "note": "(as salt: HCl) [Example 48, N-[5-(cis-3-Acetylamino-cyclobutyl)-1H-pyrazol-3-yl]-2-naphthalen-1-yl-acetamide]", "melting point": 209.4}, {"smiles": "COc1cccc(C(=O)N[C@H]2C[C@@H](c3cc(NC(=O)Cc4cccc5ccccc45)n[nH]3)C2)c1", "note": "(as salt: HCl) [Example 44, 3-Methoxy-N-{cis-3-[5-(2-naphthalen-1-yl-acetylamino)-2H-pyrazol-3-yl]-cyclobutyl}-benzamide]", "melting point": 124.8}, {"smiles": "O=C(Cc1cccc2ccccc12)Nc1cc([C@H]2C[C@@H](NC(=O)CC3CC3)C2)[nH]n1", "note": "(as salt: HCl) [Example 50, 2-Cyclopropyl-N-{cis-3-[5-(2-naphthalen-1-yl-acetylamino)-2H-pyrazol-3-yl]-cyclobutyl}-acetamide]", "melting point": 93.2}, {"smiles": "O=C(Cc1cccc2ccccc12)Nc1cc([C@H]2C[C@@H](NC(=O)c3cccc([N+](=O)[O-])c3)C2)[nH]n1", "note": "(as salt: HCl) [Example 55, N-{cis-3-[5-(2-Naphthalen-1-yl-acetylamino)-2H-pyrazol-3-yl]-cyclobutyl}-3-nitro-benzamide]", "melting point": 123.5}, {"smiles": "O=C(Cc1cccc2ccccc12)Nc1cc([C@H]2C[C@@H](Oc3nc4ccccc4o3)C2)[nH]n1", "note": "(as salt: HCl) [Example 63, N-{5-[cis-3-(Benzooxazol-2-yloxy)-cyclobutyl]-1H-pyrazol-3-yl}-2-naphthalen-1-yl-acetamide]", "melting point": 142}, {"smiles": "O=C(Cc1cccc2ccccc12)Nc1cc([C@H]2C[C@@H](NC(=O)c3ccc4ccccc4n3)C2)[nH]n1", "note": "(as salt: HCl) [Example 52, Quinoline-2-carboxylic acid {cis-3-[5-(2-naphthalen-1-yl-acetylamino)-2H-pyrazol-3-yl]-cyclobutyl}-amide]", "melting point": 200.3}, {"smiles": "O=C(Cc1cccc2ccccc12)Nc1cc([C@H]2C[C@@H](NC(=O)C3CC3c3ccccc3)C2)[nH]n1", "note": "(stereo partly drawn) (as salt: HCl) [Example 47, 2-Phenyl-cyclopropanecarboxylic acid {cis-3-[5-(2-naphthalen-1-yl-acetylamino)-2H-pyrazol-3-yl]-cyclobutyl}-amide]", "melting point": 139.8}, {"smiles": "COc1ccc(C(=O)N[C@H]2C[C@@H](c3cc(NC(=O)Cc4cccc5ccccc45)n[nH]3)C2)cc1", "note": "(as salt: HCl) [Example 54, 4-Methoxy-N-{cis-3-[5-(2-naphthalen-1-yl-acetylamino)-2H-pyrazol-3-yl]-cyclobutyl}-benzamide]", "melting point": 175.6}, {"smiles": "O=C(Cc1cccc2ccccc12)Nc1cc([C@H]2C[C@@H](NC(=O)c3ccccc3)C2)[nH]n1", "note": "(as salt: HCl) [Example 49, N-{cis-3-[5-(2-Naphthalen-1-yl-acetylamino)-2H-pyrazol-3-yl]-cyclobutyl}-benzamide]", "melting point": 194}, {"smiles": "CC(C)(C)C(=O)NC1CCC(c2cc(Nc3cccc(C(F)(F)F)c3)n[nH]2)C1", "note": "(centres unmarked) (as salt: HCl) [Example 34, 2,2-Dimethyl-N-{3-[5-(3-trifluoromethyl-phenylamino)-2H-pyrazol-3-yl]-cyclopentyl}-propionamide]", "melting point": 249.2}]}]}
